assay: Inhibition of yeast chymotrypsin-like 20S proteasome using suc-LLVY-AMC as substrate pretreated for 1 hr followed by substrate addition measured every 2 mins for 1 hr by fluorescence assay; set-up: species or system Saccharomyces cerevisiae

| SMILES | IC50 |
| --- | --- |
| Nc1nc(/C=C/CNC(=O)c2cc(Br)c[nH]2)c[nH]1 | 23 µM |
| NC1=N[C@@]23CCCN2C(=O)c2[nH]cc(Br)c2[C@H]3N1 | 69 µM |
| N=C(N)Nc1c2n(c(=O)c3[nH]cc(Br)c13)CCC2 | > 100 µM |
| N=C1N[C@@H](O)[C@@]2(N1)[C@@H](Cl)[C@H](CN)[C@H]1CN3C(=O)c4ccc(Br)n4[C@@H]4NC(=N)N[C@@]43[C@@H]12 | 9.2 µM |
| Nc1ncc(/C=C/CNC(=O)c2ccc(Br)[nH]2)[nH]1 | 27 µM |
| N=C(N)Nc1c2n(c(=O)c3[nH]c(Br)cc13)CCC2 | > 100 µM |

From ChEMBL document CHEMBL4196239, “Bromopyrrole Alkaloid Inhibitors of the Proteasome Isolated from a Dictyonella sp. Marine Sponge Collected at the Amazon River Mouth” (J Nat Prod, 2018)
